According to paper PMC6812009, “Covalent Aurora A regulation by the metabolic integrator coenzyme A” (Redox Biology, 2019):
Changes are numbered by the printed parent chain.

What was measured:
CAMKK = assay: Kinase profiling screen (radioactive filter-binding assay); type: biochemical, human; settings: 100 μM compound, 20 μM ATP
Protocol: (§1) Profiling of 117 protein kinases with CoA, dpCoA and ADP was carried out at the International Centre for Protein Kinase Profiling at the University of Dundee. Each compound was tested in vitro, in duplicate, at 100 μM final concentration using recombinant kinases, model substrates and optimal concentrations of ATP. Bacterially expressed full-length His-Aurora A was used to determine the IC50 value for CoA (in the presence or absence of DTT), dpCoA, ADP and desulfo-CoA. The assay was performed in the presence of 5 μM competing ATP. To examine whether the inhibitory effect of CoA on Aurora A is modulated by TPX2, IC50 values for CoA were also generated in the presence and absence of 1 μg TPX2 (residues 1–43) fragment.

AMPK = assay: as above; type: biochemical, human; settings: 100 μM compound, 50 μM ATP
Protocol: as §1

ROCK 2 = assay: as above; type: biochemical, human; settings: 100 μM compound, 20 μM ATP
Protocol: as §1

mouse oocytes = assay: Microinjection of mouse oocytes, spindle formation and chromosome alignment; type: cell-based; settings: 17 h after GV release; for Disruption of bipolar spindle formation and chromosome alignment: injected with 3 mM compound
Protocol: Mouse oocytes arrested at the GV stage were injected with different concentrations of CoA (0.15–5 mM). Since the commercial preparation of CoA used for microinjection contained 3 mol of lithium ions per mole of CoA, control oocytes were injected with an equivalent amount of LiCl. In a separate study, oocytes were injected with 3 mM CoA, ADP, AMP, 3′-5′-ADP and pantetheine. To examine the effect of injected compounds on spindle formation, oocytes were fixed 17 h after GV release and stained for alpha-tubulin (green) and DNA (blue).

C290A Aurora A = biological target: T1, C290A Aurora A (Homo sapiens, UniProt O14965, C290A); assay: Thermal shift assay (differential scanning fluorimetry); type: binding; settings: 5 mM ATP or 5 mM CoA
T1 construct: For enzyme and DSF assays, full-length human Aurora A and Aurora B and 1–43 TPX2 were produced; made in house; host or cells: E. coli BL21 (DE3) pLysS
Protocol: (§2) Asp274Asn and Thr217Glu Aurora A mutants were generated by PCR-site directed mutagenesis, expressed and purified as described previously. Cys290Ala Aurora A was generated using standard procedures, and purified as described.
(§3) Thermal-shift assays were performed with a StepOnePlus Real-Time PCR machine (Life Technologies) using Sypro-Orange dye (Invitrogen) and thermal ramping (0.3 °C in step intervals between 25 and 94 °C). All proteins were diluted to a final concentration of 5 μM in 50 mM Tris/HCl, pH 7.4 and 100 mM NaCl in the presence or absence of the indicated concentrations of ligand (final DMSO concentration no higher than 4 % v/v). CoA, dephosphoCoA or kinase inhibitors diluted from 10 mM DMSO stocks were assayed as described previously. Normalized data were processed using the Boltzmann equation to generate sigmoidal denaturation curves, and average Tm/ΔTm values calculated as previously described using GraphPad Prism software.

T217E Aurora A = biological target: T2, T217E Aurora A (Homo sapiens, UniProt O14965, T217E); assay: as above; type: binding; settings: 5 mM ATP, 5 mM CoA or 0.1 mM MLN8237
T2 construct: For enzyme and DSF assays, full-length human Aurora A and Aurora B and 1–43 TPX2 were produced; made in house; host or cells: E. coli
T2 sequence (O14965 1-403 T217E): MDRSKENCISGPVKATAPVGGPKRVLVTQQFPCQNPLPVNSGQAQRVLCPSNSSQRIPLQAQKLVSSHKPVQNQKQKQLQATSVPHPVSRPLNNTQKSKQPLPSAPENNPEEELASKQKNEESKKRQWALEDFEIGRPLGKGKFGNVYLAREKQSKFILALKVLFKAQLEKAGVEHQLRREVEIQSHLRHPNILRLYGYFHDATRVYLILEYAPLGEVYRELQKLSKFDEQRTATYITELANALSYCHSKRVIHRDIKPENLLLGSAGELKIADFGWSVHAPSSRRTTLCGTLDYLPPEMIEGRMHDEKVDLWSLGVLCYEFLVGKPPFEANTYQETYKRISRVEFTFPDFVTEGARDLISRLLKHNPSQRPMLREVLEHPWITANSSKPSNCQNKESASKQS
Protocol: as §2, §3

[1] = biological target: T3, kinase-dead D274N (inactive) Aurora A (Homo sapiens, UniProt O14965, D274N); assay: as above; type: binding; settings: 5 mM ATP or 5 mM CoA; CoA DTT-dependent
T3 construct: For enzyme and DSF assays, full-length human Aurora A and Aurora B and 1–43 TPX2 were produced; 6His (N); made in house; host or cells: E. coli
Protocol: as §2, §3

[2] = biological target: T4, WT Aurora A (T288 phosphorylated, active) (Homo sapiens, UniProt O14965); assay: as above; type: binding; settings: 5 mM ATP, 5 mM CoA or 0.1 mM MLN8237; for CoA dependent on non-reducing conditions
T4 construct: Bacterially expressed full-length His-Aurora A was used to determine the IC50 value for CoA; made in house; host or cells: E. coli BL21 (DE3) pLysS
T4 sequence (O14965 1-403): T2 sequence (O14965 1-403 T217E) with E217T
Protocol: as §2, §3

TrkA = TrkA (Homo sapiens, UniProt P04629); assay: Kinase profiling screen (radioactive filter-binding assay); type: biochemical; settings: 100 μM compound, 20 μM ATP; read-out: Kinase activity, % of activity in the absence of inhibitor
Outline: (§4)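 Across 117 protein kinases, duplicate in vitro measurements were made with CoA, dpCoA and ADP present at 100 μM final. Each reaction used recombinant kinase, a model substrate and an optimal concentration of ATP.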

IR = IR (Homo sapiens, UniProt P06213); assay: as above; type: biochemical; settings: 100 μM compound, 20 μM ATP; read-out: Kinase activity, % of activity in the absence of inhibitor
Outline: as §4

IGF-1R = IGF-1R (Homo sapiens, UniProt P08069); assay: as above; type: biochemical; settings: 100 μM compound, 5 μM ATP; read-out: Kinase activity, % of activity in the absence of inhibitor
Outline: as §4

IRR = IRR (Homo sapiens, UniProt P14616); assay: as above; type: biochemical; settings: 100 μM compound, 5 μM ATP; read-out: Kinase activity, % of activity in the absence of inhibitor
Outline: as §4

T3 sequence (O14965 whole entry D274N): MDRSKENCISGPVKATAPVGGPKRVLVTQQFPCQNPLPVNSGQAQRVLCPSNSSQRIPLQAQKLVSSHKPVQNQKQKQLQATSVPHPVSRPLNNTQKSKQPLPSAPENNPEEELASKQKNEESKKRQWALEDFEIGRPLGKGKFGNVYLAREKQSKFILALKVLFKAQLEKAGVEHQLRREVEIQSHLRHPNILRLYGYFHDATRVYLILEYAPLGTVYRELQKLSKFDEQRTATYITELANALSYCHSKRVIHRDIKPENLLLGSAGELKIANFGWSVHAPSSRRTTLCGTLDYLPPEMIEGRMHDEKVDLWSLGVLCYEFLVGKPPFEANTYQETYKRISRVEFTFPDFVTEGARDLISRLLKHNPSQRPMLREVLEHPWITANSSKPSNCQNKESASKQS
Chain of IR (P06213 28-1382): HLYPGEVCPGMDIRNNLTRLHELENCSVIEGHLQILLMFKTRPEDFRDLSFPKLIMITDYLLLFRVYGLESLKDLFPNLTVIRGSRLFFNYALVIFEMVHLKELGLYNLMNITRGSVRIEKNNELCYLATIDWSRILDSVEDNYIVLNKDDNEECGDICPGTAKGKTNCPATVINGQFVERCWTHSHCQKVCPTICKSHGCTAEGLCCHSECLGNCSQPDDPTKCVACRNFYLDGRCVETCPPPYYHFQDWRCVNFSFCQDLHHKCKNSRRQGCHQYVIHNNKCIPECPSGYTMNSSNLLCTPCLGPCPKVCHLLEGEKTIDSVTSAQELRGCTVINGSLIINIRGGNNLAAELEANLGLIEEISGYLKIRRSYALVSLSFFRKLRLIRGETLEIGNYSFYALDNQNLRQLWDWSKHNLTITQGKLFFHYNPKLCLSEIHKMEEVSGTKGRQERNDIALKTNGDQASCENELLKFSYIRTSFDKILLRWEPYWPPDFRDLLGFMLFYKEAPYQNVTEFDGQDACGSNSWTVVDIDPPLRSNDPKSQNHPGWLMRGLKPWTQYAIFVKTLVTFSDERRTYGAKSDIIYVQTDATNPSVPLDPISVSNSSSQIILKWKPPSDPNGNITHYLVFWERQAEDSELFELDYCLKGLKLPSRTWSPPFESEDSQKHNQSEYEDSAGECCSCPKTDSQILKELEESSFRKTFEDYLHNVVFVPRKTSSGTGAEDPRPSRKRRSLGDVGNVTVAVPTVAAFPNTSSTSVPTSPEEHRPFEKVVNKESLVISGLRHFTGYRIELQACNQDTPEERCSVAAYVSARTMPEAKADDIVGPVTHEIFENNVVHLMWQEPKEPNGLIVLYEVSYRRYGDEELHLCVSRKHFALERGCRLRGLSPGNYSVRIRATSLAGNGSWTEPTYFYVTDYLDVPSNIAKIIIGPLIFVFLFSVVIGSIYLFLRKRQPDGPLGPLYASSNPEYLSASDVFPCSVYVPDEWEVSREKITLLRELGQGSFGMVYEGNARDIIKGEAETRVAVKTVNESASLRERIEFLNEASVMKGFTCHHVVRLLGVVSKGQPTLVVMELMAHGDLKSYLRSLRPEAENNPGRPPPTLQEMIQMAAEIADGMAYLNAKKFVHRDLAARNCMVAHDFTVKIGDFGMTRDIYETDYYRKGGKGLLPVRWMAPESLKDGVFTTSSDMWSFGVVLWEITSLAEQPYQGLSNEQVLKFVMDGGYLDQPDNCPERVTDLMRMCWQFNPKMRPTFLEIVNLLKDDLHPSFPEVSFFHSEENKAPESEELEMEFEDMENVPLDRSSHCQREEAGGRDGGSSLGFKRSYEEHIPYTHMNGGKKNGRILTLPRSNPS
Chain of IGF-1R (P08069 31-1367): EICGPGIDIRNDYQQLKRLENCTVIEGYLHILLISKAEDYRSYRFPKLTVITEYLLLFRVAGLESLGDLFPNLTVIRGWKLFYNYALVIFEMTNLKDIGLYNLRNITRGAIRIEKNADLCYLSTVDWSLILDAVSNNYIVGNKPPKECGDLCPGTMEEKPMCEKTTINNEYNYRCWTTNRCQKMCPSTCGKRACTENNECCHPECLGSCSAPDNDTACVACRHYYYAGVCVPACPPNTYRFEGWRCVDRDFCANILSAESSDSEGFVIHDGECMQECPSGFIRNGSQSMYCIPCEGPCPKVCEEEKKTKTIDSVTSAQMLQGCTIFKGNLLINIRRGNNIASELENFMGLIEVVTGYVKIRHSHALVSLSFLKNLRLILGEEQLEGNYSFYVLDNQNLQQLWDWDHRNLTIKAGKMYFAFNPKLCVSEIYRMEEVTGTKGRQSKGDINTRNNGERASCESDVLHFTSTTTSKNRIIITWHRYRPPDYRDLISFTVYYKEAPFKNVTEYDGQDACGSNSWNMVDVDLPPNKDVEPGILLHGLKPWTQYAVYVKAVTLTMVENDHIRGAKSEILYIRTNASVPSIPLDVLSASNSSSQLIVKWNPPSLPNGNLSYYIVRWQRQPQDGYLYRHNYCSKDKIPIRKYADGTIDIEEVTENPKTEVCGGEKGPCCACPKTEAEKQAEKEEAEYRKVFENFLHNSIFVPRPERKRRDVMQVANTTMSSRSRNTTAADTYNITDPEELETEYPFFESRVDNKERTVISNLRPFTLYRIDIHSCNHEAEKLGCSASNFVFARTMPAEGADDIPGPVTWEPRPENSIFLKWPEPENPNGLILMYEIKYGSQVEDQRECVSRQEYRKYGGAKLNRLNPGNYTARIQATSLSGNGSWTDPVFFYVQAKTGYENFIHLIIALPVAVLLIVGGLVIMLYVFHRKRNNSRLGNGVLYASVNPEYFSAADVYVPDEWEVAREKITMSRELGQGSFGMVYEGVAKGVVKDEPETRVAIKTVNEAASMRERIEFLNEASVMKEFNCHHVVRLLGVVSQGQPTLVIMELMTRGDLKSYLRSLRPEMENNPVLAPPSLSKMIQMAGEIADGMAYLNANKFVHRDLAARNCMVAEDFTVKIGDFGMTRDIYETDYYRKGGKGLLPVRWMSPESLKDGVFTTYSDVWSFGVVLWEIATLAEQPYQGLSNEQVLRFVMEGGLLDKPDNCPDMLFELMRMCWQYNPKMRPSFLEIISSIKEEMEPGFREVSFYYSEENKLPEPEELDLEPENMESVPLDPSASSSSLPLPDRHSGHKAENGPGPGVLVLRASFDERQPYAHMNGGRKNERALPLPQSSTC
T1 sequence (O14965 whole entry C290A): as the sequence (O14965 whole entry D274N) above, with N274D, C290A counted along it
Chain of IRR (P14616 27-1297): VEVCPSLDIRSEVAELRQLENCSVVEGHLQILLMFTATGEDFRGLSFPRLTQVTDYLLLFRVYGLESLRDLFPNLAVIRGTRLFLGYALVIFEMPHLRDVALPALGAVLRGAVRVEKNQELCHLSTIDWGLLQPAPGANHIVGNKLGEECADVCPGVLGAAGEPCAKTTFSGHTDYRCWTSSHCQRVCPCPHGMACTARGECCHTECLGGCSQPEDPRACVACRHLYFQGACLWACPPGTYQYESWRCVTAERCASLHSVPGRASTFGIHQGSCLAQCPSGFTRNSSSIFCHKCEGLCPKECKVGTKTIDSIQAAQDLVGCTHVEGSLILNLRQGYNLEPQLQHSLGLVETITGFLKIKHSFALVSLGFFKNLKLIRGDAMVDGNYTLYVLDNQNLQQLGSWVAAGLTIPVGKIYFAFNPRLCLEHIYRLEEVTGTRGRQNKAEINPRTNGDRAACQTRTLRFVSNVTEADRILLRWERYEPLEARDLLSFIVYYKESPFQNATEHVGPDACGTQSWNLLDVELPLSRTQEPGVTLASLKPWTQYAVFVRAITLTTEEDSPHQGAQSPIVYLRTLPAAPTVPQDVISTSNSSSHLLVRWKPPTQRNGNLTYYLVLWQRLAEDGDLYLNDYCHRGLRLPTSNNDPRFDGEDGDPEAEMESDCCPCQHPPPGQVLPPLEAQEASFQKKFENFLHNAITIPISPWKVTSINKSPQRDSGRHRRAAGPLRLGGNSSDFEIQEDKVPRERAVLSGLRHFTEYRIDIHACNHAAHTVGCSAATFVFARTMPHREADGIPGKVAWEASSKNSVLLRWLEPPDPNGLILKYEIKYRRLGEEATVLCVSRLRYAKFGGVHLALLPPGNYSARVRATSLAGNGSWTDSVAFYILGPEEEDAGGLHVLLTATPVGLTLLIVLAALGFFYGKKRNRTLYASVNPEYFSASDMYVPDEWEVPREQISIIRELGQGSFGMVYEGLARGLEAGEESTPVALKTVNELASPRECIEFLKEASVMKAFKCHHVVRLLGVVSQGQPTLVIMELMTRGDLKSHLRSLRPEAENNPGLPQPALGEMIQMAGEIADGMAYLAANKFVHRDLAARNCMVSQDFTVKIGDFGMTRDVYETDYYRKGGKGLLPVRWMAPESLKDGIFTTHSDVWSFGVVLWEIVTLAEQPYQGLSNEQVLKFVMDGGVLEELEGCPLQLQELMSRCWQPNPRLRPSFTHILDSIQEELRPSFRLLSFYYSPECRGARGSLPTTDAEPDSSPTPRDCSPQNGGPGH

SMILES	Kinase activity, % of activity in the absence of inhibitor (CAMKK)	Kinase activity, % of activity in the absence of inhibitor (AMPK)	Kinase activity, % of activity in the absence of inhibitor (ROCK 2)	Disruption of bipolar spindle formation and chromosome alignment (mouse oocytes)	Ligand binding / thermal stabilization (C290A Aurora A)	Ligand-induced thermal shift (T217E Aurora A)	Ligand interaction by thermal shift [1]	Change in thermal stability (ΔTm) [2]	activity at 100 µM (TrkA)	activity at 100 µM (IR)	activity at 100 µM (IGF-1R)	activity at 100 µM (IRR)	Number of oocytes with atypical spindles and misaligned chromosomes (mouse oocytes; microinjection of 0.15–5 mM CoA, dose-dependent)
Nc1ncnc2c1ncn2C1OC(COP(=O)(O)OP(=O)(O)O)C(O)C1O (centres unmarked) [ADP]	52.9%	54.1%	57.8%	not									
CC(C)(COP(=O)(O)OP(=O)(O)OC[C@H]1O[C@@H](n2cnc3c(N)ncnc32)[C@H](O)[C@@H]1OP(=O)(O)O)[C@@H](O)C(=O)NCCC(=O)NCCS [CoA, Coenzyme A]	97.4%	90.8%	94.3%	disrupted both bipolar spindle formation and chromosome alignment	deficient in CoA-induced thermal stabilization	completely abolished	still able to interact	marked change in thermal stability	104%	100%	93%	92%	markedly increased
CC(C)(COP(=O)(O)OP(=O)(O)OCC1OC(n2cnc3c(N)ncnc32)C(O)C1O)C(O)C(=O)NCCC(=O)NCCS (centres unmarked) [dpCoA, dephospho-CoA]	71.4%	75.9%	96.4%										
